Measurements from PMC5799307, “Creation of a long-acting nanoformulated dolutegravir” (Nature Communications, 2018).
Where two headings read alike, the source gives them in different places.

How the values were obtained:
[1] = test system: HIV-1ADA; experiment: IC50 by HIV-1 RT activity in HIV-1ADA-infected MDM; type: cell-based; settings: Human immunodeficiency virus 1, 240 h, HIV-1ADA MOI 0.1, RT activity day 10
Description: (§1) Antiretroviral efficacy was determined by measurements of HIV reverse transcriptase (RT) activity. For IC50 determination, MDM were exposed to various concentrations (0.01–1000 nM) of DTG or MDTG for 1 h followed by challenge with HIV-1ADA[60] at a multiplicity of infection (MOI) of 0.1 infectious particles per cell for 4 h. Following viral challenge, cells were washed and incubated with the same concentration of drug used before infection for an additional 10 days in culture. Culture fluids were collected on day 10 for the measurement of RT activity as previously described[16],[62],[63]. To assess antiretroviral efficacy, MDM were treated with 100 μM DTG, MDTG, NDTG, or NMDTG as described above for 8 h. After treatment, cells were washed with PBS and cultured with fresh media, with half-media exchanges every other day. At 0, 4, 12 h, and 1, 5, 10, 15, 20, 25, or 30 days after treatment, cells were challenged with HIV-1ADA at an MOI of 0.1 infectious particles per cell for 16 h. After viral infection, the cells were cultured an additional 10 days with half-media exchanges every other day. Culture fluids were collected for measurement of RT activity as previously described[16],[62],[63]. Cells were fixed with 4% PFA and expression of HIV-1p24 antigen was determined by immunocytochemistry.

[2] = test system: HIV-1; set-up: method as in PMID 21115794; settings: cited from earlier work
[3] = test system: HIV-1ADA; experiment: Antiretroviral efficacy in MDM challenged with HIV-1ADA after single 8-h treatment (RT activity, p24); type: cell-based
Description: as §1
For immunocytochemistry, cells were washed with PBS and fixed with 4% PFA at room temperature for 15 min, followed by an additional washing with PBS. The cells were treated with a blocking/permeabilizing solution (1% Triton X-100, 10% BSA in PBS) and incubated with mouse monoclonal antibody to HIV-1p24 (1:100) for 16 h at 4 °C. Cells were washed with PBS, and polymer-based HRP-conjugated anti-mouse secondary was added for 30 min at room temperature. Cells were then washed with PBS and developed with DAB. Nuclei were counterstained with Mayer’s hematoxylin, and cells were visualized with a ×20 objective on a Nikon Eclipse E800 microscope (Melville, NY) with Nuance EX multispectral imaging system (PerkinElmer, Hopkinton, MA)[16],[59].

[4] = test system: human monocyte-derived macrophages (MDM); type: cell-based; settings: 100 µM
Description: Human monocytes were obtained by leukapheresis from HIV-1/2 and hepatitis B seronegative donors, and then purified by counter-current centrifugal elutriation. Human monocytes were plated in a 12-well plate at a density of 1.0 × 10^6 cells per well using DMEM supplemented with 10% heat-inactivated pooled human serum, 1% glutamine, 10 µg/mL ciprofloxacin, and 50 µg/mL gentamicin. Cells were maintained at 37 °C in a 5% CO2 incubator. After 7 days of differentiation in the presence of 1000 U/mL recombinant human macrophage colony stimulating factor (MCSF), MDM were treated with 100 μM DTG, MDTG, NDTG, or NMDTG. Native drugs were added in DMSO (0.1% v/v). Uptake of drug was assessed by measurements of intracellular drug concentrations at 2, 4, 8, 12, 16, or 24 h after treatment. […] For both studies, adherent MDM were washed with PBS, then scraped into PBS, and counted at indicated time points using an Invitrogen Countess Automated Cell Counter (Carlsbad, CA). […] DTG and MDTG drug content was determined by UPLC-UV/Vis as described above. Release was assessed by collecting culture media after 4-h of drug treatment on days 1, 3, 5, 7, 10, 12, and 14. […] Supernatants were dried using a ThermoScientific Savant Speed Vacuum (Waltham, MA), extracted drug resuspended in 150 µL HPLC-grade methanol, and drug content was determined by UPLC-UV/Vis. […]

maximum cellular drug level ([4]; 4 h) [µg/10^6 cells]	Structure (SMILES)	IC50 [1] [nM]	protein-adjusted inhibitory concentration90 (PA-IC90) [2] [µg/mL]	inhibition at 100 µM ([3]; Human immunodeficiency virus 1, single 8-h treatment, read-out: maximal inhibition of HIV-1 RT activity) [%]	time after drug treatment for which efficacy was observed ([3]; single 8-h treatment, 100 µM)	drug retained within MDM ([4]; 24 h) [µg/10^6 cells]	inhibition at 100 µM ([3]; Human immunodeficiency virus 1, challenge at day 30 after drug loading, read-out: viral inhibition) [%]	beginning of viral breakthrough ([3]; days after single 8-h treatment, 100 µM) [days]
–	C[C@@H]1CCO[C@H]2Cn3cc(C(=O)NCc4ccc(F)cc4F)c(=O)c(O)c3C(=O)N12 [DTG, dolutegravir]	56.7	0.064	65	up to 4 h	< 0.1	–	–
16.7	CCCCCCCCCCCCCC(=O)Oc1c2n(cc(C(=O)NCc3ccc(F)cc3F)c1=O)C[C@@H]1OCC[C@@H](C)N1C2=O [MDTG]	62.5	–	–	–	–	83	20
